Test results reported in publication PMC4029172 (eLife, 2014).
≈ marks a conversion by molar mass, not a printed value. Numbered stars: 1 amine (or outer) side, 2 acyl side, 3 side chain; on linkers, the order of the positions; unused ones are H or OH. Bridge positions count the residues as written; N and C are the ends. Square brackets hold non-standard residues; d marks the D form. Peptide text beside a SMILES is read from it. * marks the point of attachment. X5 = C[C@@H](Oc1ccc([C@H](N[*:1])C(=O)[*:2])cc1)[C@](O)(/C=C/C(=O)[*:3])CBr; X4 = CC(Oc1ccc(C(N[*:1])C(=O)[*:2])cc1)C(O)(C=CC(=O)[*:3])CCl; Pentanoyl(2R-Me,3R-OH,4-Me) = CC(C)[C@@H](O)[C@@H](C)C(=O)*; d(aIle) = CC[C@H](C)[C@@H](N)C(=O)O; d(aThr) = C[C@@H](O)[C@@H](N)C(=O)O; NMeF = CN[CH](Cc1ccccc1)C(=O)O; X3 = CC(C)C(O)C(C)C(=O)*

Assays:
[1] = test system: E. coli D21f2tolC Sal-resistant mutants; assay: Cross-resistance levels of Sal-resistant mutants; assay type: cell-based, Escherichia coli; settings: wild-type reference of Figure 4B
[2] = test system: E. coli D21f2tolC Rif-, Stl-, CBR703-, Myx- and Lpm-resistant mutants; assay: Cross-resistance levels of Rif-, Stl-, CBR703-, Myx- and Lpm-resistant mutants; assay type: cell-based, Escherichia coli; settings: wild-type reference of Figure 4C
[3] = biological target: T1, E. coli RNAP holoenzyme (Escherichia coli, UniProt P0A8T7+P0A8V2); assay type: biochemical
[4] = biological target: T1, E. coli RNAP holoenzyme; assay type: biochemical; remark: listed apart in the source
[5] = test system: Enterobacter cloacae ATCC 13047; assay: microbe, parasite or virus in culture; assay type: cell-based; settings: ATCC13047
[6] = test system: Haemophilus influenzae ATCC 49247; assay: microbe, parasite or virus in culture; assay type: cell-based; settings: ATCC49247
[7] = test system: Neisseria gonorrhoeae ATCC 19424; assay: microbe, parasite or virus in culture; assay type: cell-based; settings: ATCC19424
[8] = biological target: Staphylococcus aureus RNAP (Staphylococcus aureus, UniProt Q5HID2+Q5HID3); assay: biochemical
[9] = biological target: Escherichia coli RNAP (Escherichia coli, UniProt P0A8T7+P0A8V2); assay: biochemical
Sequence of Escherichia coli RNAP (P0A8V2 whole entry): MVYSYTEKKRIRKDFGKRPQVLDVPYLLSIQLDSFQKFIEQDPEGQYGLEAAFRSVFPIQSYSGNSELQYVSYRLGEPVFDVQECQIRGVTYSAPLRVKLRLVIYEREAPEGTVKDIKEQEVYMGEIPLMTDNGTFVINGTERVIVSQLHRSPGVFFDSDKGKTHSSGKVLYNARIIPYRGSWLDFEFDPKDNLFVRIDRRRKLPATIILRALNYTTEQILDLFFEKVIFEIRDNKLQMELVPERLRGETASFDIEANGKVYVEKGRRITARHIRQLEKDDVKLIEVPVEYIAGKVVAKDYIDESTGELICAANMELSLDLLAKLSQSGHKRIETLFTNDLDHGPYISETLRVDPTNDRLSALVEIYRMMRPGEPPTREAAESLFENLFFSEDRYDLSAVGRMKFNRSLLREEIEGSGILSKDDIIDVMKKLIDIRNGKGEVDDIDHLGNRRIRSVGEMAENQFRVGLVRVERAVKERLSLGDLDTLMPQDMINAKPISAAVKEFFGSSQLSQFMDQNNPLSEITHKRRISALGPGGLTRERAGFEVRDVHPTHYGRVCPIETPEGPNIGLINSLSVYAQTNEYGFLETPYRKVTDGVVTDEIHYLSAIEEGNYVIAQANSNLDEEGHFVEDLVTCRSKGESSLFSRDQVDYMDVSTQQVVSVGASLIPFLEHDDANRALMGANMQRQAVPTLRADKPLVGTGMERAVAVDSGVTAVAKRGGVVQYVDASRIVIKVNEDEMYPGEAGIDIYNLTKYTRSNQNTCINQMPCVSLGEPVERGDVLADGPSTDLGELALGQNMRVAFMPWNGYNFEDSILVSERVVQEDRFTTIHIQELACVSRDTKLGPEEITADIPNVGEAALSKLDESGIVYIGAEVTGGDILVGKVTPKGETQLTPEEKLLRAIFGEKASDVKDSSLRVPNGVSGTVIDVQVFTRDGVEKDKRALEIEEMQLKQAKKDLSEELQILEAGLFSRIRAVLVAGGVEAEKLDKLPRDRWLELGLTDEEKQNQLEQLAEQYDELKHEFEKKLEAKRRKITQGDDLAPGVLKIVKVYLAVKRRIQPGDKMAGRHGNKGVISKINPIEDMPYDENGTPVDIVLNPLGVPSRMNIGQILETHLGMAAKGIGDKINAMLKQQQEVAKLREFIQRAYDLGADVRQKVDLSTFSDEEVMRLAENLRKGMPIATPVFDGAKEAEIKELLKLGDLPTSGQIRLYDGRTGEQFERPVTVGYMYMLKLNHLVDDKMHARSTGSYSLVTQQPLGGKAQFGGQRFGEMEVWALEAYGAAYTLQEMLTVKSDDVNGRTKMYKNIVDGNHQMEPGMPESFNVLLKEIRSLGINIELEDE
Sequence of Escherichia coli RNAP (P00579 whole entry, further chain): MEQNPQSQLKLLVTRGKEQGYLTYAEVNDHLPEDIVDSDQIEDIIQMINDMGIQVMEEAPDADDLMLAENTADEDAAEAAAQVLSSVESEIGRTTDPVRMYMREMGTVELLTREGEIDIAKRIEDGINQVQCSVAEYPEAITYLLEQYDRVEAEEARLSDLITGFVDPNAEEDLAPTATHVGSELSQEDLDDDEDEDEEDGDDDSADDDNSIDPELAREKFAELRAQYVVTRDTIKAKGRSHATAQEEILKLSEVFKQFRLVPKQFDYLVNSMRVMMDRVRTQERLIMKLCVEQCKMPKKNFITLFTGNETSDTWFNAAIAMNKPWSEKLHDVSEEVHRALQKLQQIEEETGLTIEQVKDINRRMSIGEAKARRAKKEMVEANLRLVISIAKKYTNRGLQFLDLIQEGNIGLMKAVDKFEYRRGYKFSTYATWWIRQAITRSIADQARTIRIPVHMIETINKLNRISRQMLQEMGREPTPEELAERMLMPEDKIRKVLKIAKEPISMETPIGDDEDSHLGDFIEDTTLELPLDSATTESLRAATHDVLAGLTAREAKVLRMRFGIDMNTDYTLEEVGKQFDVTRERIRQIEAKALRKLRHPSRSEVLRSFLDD
Sequence of Escherichia coli RNAP (P0A8T7 whole entry): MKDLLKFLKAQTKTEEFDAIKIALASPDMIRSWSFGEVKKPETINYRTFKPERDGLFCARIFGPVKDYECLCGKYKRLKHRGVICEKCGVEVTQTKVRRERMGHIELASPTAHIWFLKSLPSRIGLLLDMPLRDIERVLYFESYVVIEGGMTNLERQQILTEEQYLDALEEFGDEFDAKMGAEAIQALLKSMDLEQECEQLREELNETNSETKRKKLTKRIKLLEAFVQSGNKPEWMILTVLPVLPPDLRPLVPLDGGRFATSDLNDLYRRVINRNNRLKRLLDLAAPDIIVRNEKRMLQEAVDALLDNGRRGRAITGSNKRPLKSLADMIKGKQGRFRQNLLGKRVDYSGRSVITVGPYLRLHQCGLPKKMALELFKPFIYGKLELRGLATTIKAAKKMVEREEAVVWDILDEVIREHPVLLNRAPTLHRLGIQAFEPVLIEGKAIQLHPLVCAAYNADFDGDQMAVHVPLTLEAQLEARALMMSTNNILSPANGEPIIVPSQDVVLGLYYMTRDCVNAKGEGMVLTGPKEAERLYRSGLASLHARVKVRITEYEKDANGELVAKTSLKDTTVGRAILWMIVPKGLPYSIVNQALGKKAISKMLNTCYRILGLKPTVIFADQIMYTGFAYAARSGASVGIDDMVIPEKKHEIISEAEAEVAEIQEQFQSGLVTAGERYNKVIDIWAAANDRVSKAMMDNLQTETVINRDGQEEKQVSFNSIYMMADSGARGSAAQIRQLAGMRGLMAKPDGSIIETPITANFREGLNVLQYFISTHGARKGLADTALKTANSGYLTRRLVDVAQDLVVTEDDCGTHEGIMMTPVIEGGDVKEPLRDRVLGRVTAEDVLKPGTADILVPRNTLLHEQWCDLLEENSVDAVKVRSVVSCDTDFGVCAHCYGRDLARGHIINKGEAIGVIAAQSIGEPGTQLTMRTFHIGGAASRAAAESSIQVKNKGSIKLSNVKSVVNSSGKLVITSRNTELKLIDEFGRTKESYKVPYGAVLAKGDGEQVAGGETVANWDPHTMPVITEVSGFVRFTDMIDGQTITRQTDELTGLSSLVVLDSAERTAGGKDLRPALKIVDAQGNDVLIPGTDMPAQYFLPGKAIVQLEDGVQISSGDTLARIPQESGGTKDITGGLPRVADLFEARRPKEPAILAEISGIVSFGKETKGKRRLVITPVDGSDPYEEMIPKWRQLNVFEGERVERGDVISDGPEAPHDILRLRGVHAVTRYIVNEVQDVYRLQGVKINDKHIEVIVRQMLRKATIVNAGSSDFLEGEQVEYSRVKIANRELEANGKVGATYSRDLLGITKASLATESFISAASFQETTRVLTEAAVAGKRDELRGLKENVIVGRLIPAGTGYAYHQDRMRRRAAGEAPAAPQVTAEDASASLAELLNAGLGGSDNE
Sequence of Escherichia coli RNAP (P0A7Z4 whole entry, further chain): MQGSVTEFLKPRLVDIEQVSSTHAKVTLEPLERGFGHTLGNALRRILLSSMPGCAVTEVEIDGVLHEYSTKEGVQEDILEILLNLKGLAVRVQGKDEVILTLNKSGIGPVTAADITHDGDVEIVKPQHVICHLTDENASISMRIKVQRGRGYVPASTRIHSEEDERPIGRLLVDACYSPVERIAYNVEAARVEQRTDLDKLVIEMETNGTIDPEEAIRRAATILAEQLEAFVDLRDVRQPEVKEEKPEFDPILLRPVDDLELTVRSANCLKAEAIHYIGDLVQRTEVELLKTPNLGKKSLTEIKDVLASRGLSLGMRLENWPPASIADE
Sequence of Escherichia coli RNAP (P0A800 whole entry, further chain): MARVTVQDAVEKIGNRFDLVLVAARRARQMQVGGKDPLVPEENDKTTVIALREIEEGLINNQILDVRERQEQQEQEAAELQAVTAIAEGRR

[10] = test system: Bacillus anthracis Vollum 1B; assay: microbe, parasite or virus in culture; assay type: cell-based; settings: VOLLUM1B
[11] = test system: Burkholderia mallei CHN7; assay: microbe, parasite or virus in culture; assay type: cell-based
[12] = test system: Pseudomonas aeruginosa ATCC 10145; assay: microbe, parasite or virus in culture; assay type: cell-based; settings: ATCC10145
[13] = test system: Moraxella catarrhalis ATCC 25238; assay: microbe, parasite or virus in culture; assay type: cell-based; settings: ATCC25238
[14] = test system: Yersinia pestis CO92; assay: microbe, parasite or virus in culture; assay type: cell-based
[15] = biological target: Thermus thermophilus RNAP (Thermus thermophilus, UniProt Q8RQE8+Q8RQE9); assay: biochemical
[16] = test system: E. coli D21f2tolC spontaneous Sal-resistant mutants; assay: Resistance levels of spontaneous Sal-resistant mutants; assay type: cell-based, Escherichia coli; settings: for resistance level, all mutants: all 21 spontaneous Sal-resistant substitutions
[17] = test system: E. coli D21f2tolC; assay: Frequency of spontaneous Sal-resistant mutants; assay type: cell-based, Escherichia coli; settings: E. coli D21f2tolC plated on agar containing Sal; listed as Sal
[18] = biological target: T1, E. coli RNAP holoenzyme; assay: biochemical
[19] = test system: E. coli D21f2tolC; assay: Macromolecular synthesis in bacterial cells in culture; assay type: cell-based, Escherichia coli; settings: 2 x MIC; 0-30 min
Protocol: Macromolecular synthesis assays were performed essentially as in [Cotsonas King and Wu, 2009]. E. coli D21f2tolC ([Fralick and Burns-Keliher, 1994]) was cultured in 10 ml LB broth ([Sambrook and Russell, 2001]) at 37°C with shaking until OD600 = 0.4–0.8, and cultures were diluted with LB broth to OD600 = 0.167. Aliquots (90 µl) were dispensed into wells of a 96-well plate; were supplemented with 7 µl of pre-warmed 4 µCi/ml [^14C]-thymidine, 10 µCi/ml [^14C]-uracil, or 30 µCi/ml [^14C]-amino acid mix (PerkinElmer, Waltham, MA); were incubated 10 min at 37°C with shaking; were supplemented with 3 µl 3.3 µg/ml SalA in methanol (final concentration = 2 × MIC), 3 µl 13 µg/ml Rif in methanol (final concentration = 2 × MIC), or 3 µl solvent blank; and incubated at 37°C with shaking. At time points 0, 10, 20, and 30 min after the addition of SalA, Rif, or solvent blank, rows of samples were transferred to a second 96-well plate, containing 100 µl ice-cold 10% trichloroacetic acid (TCA) in each well, and the second plate was incubated on ice. 1 hr after the final time point, TCA precipitates were collected by filtration onto glass-fiber filters (Filtermat A; PerkinElmer; pre-rinsed twice with 5% TCA), washed with 2 × ∼300 µl 5% TCA, washed with 3 × ∼300 µl water, and washed with 2 × ∼300 µl 10% ethanol, using a Packard FilterMate 196 Cell Harvester with Matrix Filter upper head assembly (PerkinElmer). Filters were dried under a heat lamp, wrapped in a single layer of plastic wrap, and exposed to a storage phosphor screen for 18–19 hr, and analyzed by storage-phosphor scanning (Typhoon; GE Healthcare).

[20] = biological target: T1, E. coli RNAP holoenzyme; assay type: biochemical; remark: listed apart in the source
[21] = biological target: T1, E. coli RNAP holoenzyme; assay type: biochemical; remark: listed apart in the source
[22] = test system: E. coli RNAP core enzyme; assay type: biochemical, Escherichia coli
[23] = test system: wild-type or ΔTL E. coli RNAP core enzyme; assay type: biochemical, Escherichia coli
[24] = test system: E. coli D21f2tolC plasmid-borne induced Sal-resistant mutants
[25] = test system: E. coli D21f2tolC; assay: Resistance rates (fluctuation assays); settings: each agent at 2 × MIC

Question: For `ONC(=Nc1ccccc1)c1cccc(C(F)(F)F)c1` [CBR703], which MICwild-type [1] is on record?
Answer: 6.25 µg/mL

Question: What about the MICwild-type [2] of the same compound?
Answer: 6.25 µg/mL

Question: `CO[C@H]1/C=C/O[C@@]2(C)Oc3c(C)c(O)c4c(O)c(c(/C=N/N5CCN(C)CC5)c(O)c4c3C2=O)NC(=O)/C(C)=C\C=C\[C@H](C)[C@H](O)[C@@H](C)[C@@H](O)[C@@H](C)[C@H](OC(C)=O)[C@@H]1C` [Rif, rifampin] was tested. Which MICwild-type [1] did it give?
Answer: 0.20 µg/mL

Question: And the MICwild-type [2]?
Answer: 0.20 µg/mL

Question: And the “effect on nucleotide addition in primer-dependent transcription initiation” value [3]?
Answer: does not inhibit the first nucleotide-addition step

Question: What about the “effect on nucleotide addition in transcription elongation” value (shortened to “effect … in transcription elongation”) [4] of the same compound?
Answer: do not inhibit transcription elongation

Question: How did the MIC [5] turn out when `CC[C@H](C)[C@H]1NC(=O)[C@@H](NC(=O)[C@H](C)[C@H](O)C(C)C)[C@@H](C)OC(=O)[C@@H]2COC(=O)CNC(=O)/C=C/[C@](O)(CBr)[C@@H](C)Oc3ccc(cc3)[C@H](NC1=O)C(=O)N(C)[C@@H](Cc1ccccc1)C(=O)N[C@H]([C@@H](C)O)C(=O)N2` [Sal-Br] ({Pentanoyl(2R-Me,3R-OH,4-Me)}-T[d(aIle)][X5][NMeF][d(aThr)]S; ester 1-C; linker 3-6 via G) was run?
Answer: 3.13 µg/mL (≈ 2.84 µM)

Question: And the MIC [6]?
Answer: 6.25 µg/mL (≈ 5.68 µM)

Question: And the MIC [7]?
Answer: 25 µg/mL (≈ 22.7 µM)

Question: And the IC50 [8]?
Answer: 700 nM

Question: What about the IC50 [9] of the same compound?
Answer: 900 nM

Question: How did the MIC [10] turn out when `CC[C@@H](C)[C@@H]1NC(=O)[C@H](NC(=O)[C@@H](C)[C@@H](O)C(C)C)[C@H](C)OC(=O)[C@H]2COC(=O)CNC(=O)/C=C/[C@@]3(CO3)[C@H](C)Oc3ccc(cc3)[C@H](NC1=O)C(=O)N(C)[C@H](Cc1ccccc1)C(=O)N[C@@H]([C@H](C)O)C(=O)N2` [SalA, Salinamide A] was run?
Answer: 25 µg/mL (≈ 24.5 µM)

Question: And the MIC [5]?
Answer: 1.56 µg/mL (≈ 1.53 µM)

Question: And the MIC [6]?
Answer: 6.25 µg/mL (≈ 6.13 µM)

Question: What about the MIC [7] of the same compound?
Answer: 25 µg/mL (≈ 24.5 µM)

Question: What about the MIC [11] of the same compound?
Answer: 25 µg/mL (≈ 24.5 µM)

Question: What about the MIC [12] of the same compound?
Answer: 50 µg/mL (≈ 49 µM)

Question: And the MIC [13]?
Answer: 50 µg/mL (≈ 49 µM)

Question: And the MIC [14]?
Answer: 50 µg/mL (≈ 49 µM)

Question: And the IC50 [8]?
Answer: 200 nM

Question: What about the IC50 [9] of the same compound?
Answer: 200 nM

Question: What about the IC50 [15] of the same compound?
Answer: > 100000 nM

Question: What about the “resistance level, all mutants” value [16] of the same compound?
Answer: ≥ 16 fold

Question: What about the “resistance level, nine high-level mutants” value ([16]; {}) of the same compound?
Answer: ≥ 128 fold

Question: What about the MICwild-type [1] of the same compound?
Answer: 0.049 µg/mL

Question: And the MICwild-type [2]?
Answer: 0.049 µg/mL

Question: And the “frequency of spontaneous mutation to Sal-resistance” value [17]?
Answer: ~1 × 10^−9

Question: And the Ki [18]?
Answer: 200 nM

Question: What about the mode of inhibition [18] of the same compound?
Answer: noncompetitive

Question: What about the “effect on DNA synthesis ([14C]-thymidine incorporation)” value [19] of the same compound?
Answer: no effect on DNA synthesis

Question: And the “effect on RNA synthesis ([14C]-uracil incorporation)” value [19]?
Answer: inhibits RNA synthesis at the first time point following addition

Question: And the “effect on protein synthesis ([14C]-amino acids incorporation)” value [19]?
Answer: inhibits protein synthesis at later time points

Question: What about the “effect on formation of RNAP-promoter open complex (RPo)” value [20] of the same compound?
Answer: does not inhibit formation of a heparin-resistant RNAP-promoter open complex

Question: And the “effect on nucleotide addition in primer-dependent transcription initiation” value [3]?
Answer: inhibits all nucleotide-addition steps

Question: And the “effect on nucleotide addition in de novo transcription initiation” value [21]?
Answer: inhibits all nucleotide-addition steps

Question: What about the “effect … in transcription elongation” value [4] of the same compound?
Answer: inhibits nucleotide addition in transcription elongation

Question: And the effect on pyrophosphorolysis [22]?
Answer: inhibits not only the forward reaction of nucleotide addition but also the reverse reaction, pyrophosphorolysis

Question: And the “requirement of RNAP trigger loop for inhibition” value [23]?
Answer: does not require the RNAP active-center subregion referred to as the ‘trigger loop’

Question: What about the MICwild-type [24] of the same compound?
Answer: 0.049 µg/mL

Question: And the “resistance rate (per generation)” value ([25]; listed as Sal)?
Answer: 2 × 10^−9 per generation

Question: Which MIC [10] does the source give for `CCC(C)C1NC(=O)C(NC(=O)C(C)C(O)C(C)C)C(C)OC(=O)C2COC(=O)CNC(=O)C=CC(O)(CCl)C(C)Oc3ccc(cc3)C(NC1=O)C(=O)N(C)C(Cc1ccccc1)C(=O)NC(C(C)O)C(=O)N2` (stereo not shown) [SalB, salinamide B] (X3-TI[X4][NMeF]TS; ester 1-C; linker 3-6 via G; configuration not given here) here?
Answer: > 50 µg/mL

Question: And the MIC [7]?
Answer: 25 µg/mL (≈ 23.7 µM)

Question: And the MIC [11]?
Answer: 50 µg/mL (≈ 47.3 µM)

Question: What about the MIC [12] of the same compound?
Answer: > 50 µg/mL

Question: What about the MIC [14] of the same compound?
Answer: > 50 µg/mL

Question: What about the IC50 [8] of the same compound?
Answer: 800 nM

Question: And the IC50 [9]?
Answer: 500 nM

Question: And the “resistance level, all mutants” value [16]?
Answer: ≥ 16 fold

Question: And the MICwild-type [24]?
Answer: 0.20 µg/mL

Question: What does the source list for `CNC(=O)[C@@H](C)[C@H]1C(=O)/C(=C(O)/C=C/C(C)=C/[C@@H](C)[C@H]2O[C@@]3(C)O[C@H](C=C[C@@]34CO4)[C@@H]2C)C(=O)N1[C@@H]1CC[C@H](O)[C@H](C)O1` [Stl, streptolydigin]?
Answer: MICwild-type [1]: 3.13 µg/mL; MICwild-type [2]: 1.56 µg/mL

Question: How did the MICwild-type [1] turn out when lipiarmycin [Lpm] was run?
Answer: 1.56 µg/mL

Question: What about the MICwild-type [2] of the same compound?
Answer: 1.56 µg/mL

Question: What about the “effect … in transcription elongation” value [4] of the same compound?
Answer: do not inhibit transcription elongation

Question: Which MICwild-type [1] does the source give for myxopyronin here?
Answer: 0.20 µg/mL

Question: What about the MICwild-type [2] of the same compound?
Answer: 0.20 µg/mL

Question: And the “effect … in transcription elongation” value [4]?
Answer: do not inhibit transcription elongation

Question: What about the “resistance rate (per generation)” value [25] of the same compound?
Answer: 3 × 10^−10 per generation
